Assay results from patent publication US20030224942A1, “Alkylamino-1,3,5-triazines, processes for their preparation and their use as herbicides and plant growth regulators” (priority 2001, published 2003).

Experiments:
[1] = tested on: Chenopodium spp., Papaver spp., Polygonum spp., Veronica spp. or Viola spp.; test: Post-emergence effect on weeds (greenhouse pot test, visual scoring); assay type: in vivo, monocotyledonous and dicotyledonous weeds; settings: treated at three-leaf stage; visual scoring after about 3 to 4 weeks; application rate of 0.5 kg and less of active substance per hectare
[2] = tested on: Cyperus spp., Echinochloa spp., Digitaria spp., Sagitaria spp. and Scirpus spp.; test: Action on harmful plants in rice (paddy rice conditions, visual scoring); assay type: in vivo, typical rice weeds (gramineous and broad-leaved); settings: applied into the dammed water, visual scoring about three weeks after application
Source text: Transplanted and sown rice and also typical rice weeds (gramineous and broad-leaved) are cultivated in closed plastic pots in a greenhouse to the three-leaf stage (Echinochloa crus-galli 1.5-leaf) under paddy rice conditions (dammed height of water: 2-3 cm). This is followed by treatment with the compounds according to the invention. […] After this treatment, the test plants are set up in a greenhouse under optimum growth conditions and are maintained in this way throughout the test period.

Row | SMILES | herbicidal activity post-emergence against harmful plants [1] | herbicidal activity against harmful plants which are typical for rice crops [2]
1 | C#Cc1ccc(C(C)Nc2nc(C)nc(N)n2)cc1F (stereo not shown) [Product P2.1620] | very good herbicidal activity | very good herbicidal activity
2 | Cc1nc(N)nc(NC(c2ccc(F)c(C(F)=C(F)F)c2)C2CC2)n1 (stereo not shown) [Product P4.5] | very good herbicidal activity | very good herbicidal activity
3 | Cc1nc(N)nc(NC(c2cc(F)c(C(F)=C(F)F)c(F)c2)C2CC2)n1 (stereo not shown) [Product P4.49] | very good herbicidal activity | very good herbicidal activity
4 | C#Cc1cc(C(Nc2nc(C)nc(N)n2)C2CC2)ccc1F (stereo not shown) [Product P4.309] | very good herbicidal activity | very good herbicidal activity
5 | CC#Cc1cc(C(Nc2nc(C)nc(N)n2)C2CC2)ccc1F (stereo not shown) [Product P4.384] | very good herbicidal activity | very good herbicidal activity
6 | CC#Cc1c(F)cc(C(Nc2nc(C)nc(N)n2)C2CC2)cc1F (stereo not shown) [Product P4.428] | very good herbicidal activity | very good herbicidal activity
7 | Cc1nc(N)nc(NC(c2cccc(C(F)=C(F)F)c2)C2CC2)n1 (stereo not shown) [Product P4.1567] | very good herbicidal activity | very good herbicidal activity
8 | Cc1nc(N)nc(NC(c2ccc(C(F)=C(F)F)cc2)C2CC2)n1 (stereo not shown) [Product P4.1568] | very good herbicidal activity | very good herbicidal activity
9 | C#Cc1cccc(C(Nc2nc(C)nc(N)n2)C2CC2)c1 (stereo not shown) [Product P4.1579] | very good herbicidal activity | very good herbicidal activity
10 | C#Cc1ccc(C(Nc2nc(C)nc(N)n2)C2CC2)cc1 (stereo not shown) [Product P4.1580] | very good herbicidal activity | very good herbicidal activity
11 | CC#Cc1cccc(C(Nc2nc(C)nc(N)n2)C2CC2)c1 (stereo not shown) [Product P4.1582] | very good herbicidal activity | very good herbicidal activity
12 | CC#Cc1ccc(C(Nc2nc(C)nc(N)n2)C2CC2)cc1 (stereo not shown) [Product P4.1583] | very good herbicidal activity | very good herbicidal activity
13 | Cc1nc(N)nc(NC(c2cccc(C3CC3)c2)C2CC2)n1 (stereo not shown) [Product P4.1603] | very good herbicidal activity | very good herbicidal activity
14 | Cc1nc(N)nc(NC(c2ccc(C3CC3)cc2)C2CC2)n1 (stereo not shown) [Product P4.1604] | very good herbicidal activity | very good herbicidal activity
15 | CCc1nc(N)nc(NCc2ccc(F)c(C(F)=C(F)F)c2)n1 [Product P6.5] | very good herbicidal activity | very good herbicidal activity
16 | CCc1nc(N)nc(NCc2cc(F)c(C(F)=C(F)F)c(F)c2)n1 [Product P6.49] | very good herbicidal activity | very good herbicidal activity
17 | C#Cc1cc(CNc2nc(N)nc(CC)n2)ccc1F [Product P6.309] | very good herbicidal activity | very good herbicidal activity
